Consider three compounds from patent US9907879B2, “Haemostatic composition comprising crystalline polyphosphate” (BK Giulini GMBH, priority 2013, dated 2018).

Structures are written as SMILES.

Series [1] concerns thrombin formation in blood plasma. In words: Assay for measuring thrombin formation in real-time (thrombogram). Particulars: low-thrombocyte plasma; maximum thrombin concentration in thrombogram. The series is classed as biochemical. Here is the method:
This method was used to determine the formation of thrombin in blood plasma, triggered in each case by the polyphosphates, in relation to time and to the amounts of polyphosphate used. With the aid of the so-called thrombograms thus obtained, it is possible to draw conclusions concerning the response rate and the extent of thrombin formation. The measurements were carried out in accordance with the instructions from Thrombinoscope BV (manufacturer of the below-mentioned fluorogenic substrate) in a fluorometer (Fluoroscan Ascent, Thermo Scientific) equipped with a dispenser (see F. Müller et al., Cell 2009, 139, 1143-1156 and Supplemental Data). […] Inner filter effects and the substrate consumption were corrected by calibrating each measurement against a fluorescence curve which was determined by means of a mixture of the plasma (80 μl) with a fixed amount of thrombin/α2-macroglobulin complex (Thrombin Calibrator, Thrombinoscope BV). […]
Characteristic of the thrombograms are, in particular, the delay time and the endogenous thrombin potential (ETP). […] ETP refers to the integral of the measured curve of the thrombin concentration. […]
Table 1 below characterizes the investigated phosphates in terms of their water solubility, their chain length, their solid structure and their hemostatic action. Here, water-soluble refers to phosphates having a water solubility of at least 1 g per 100 g of water, as determined by the above-described technique. Here, hemostatic refers to phosphates where the thrombograms, as determined by the above-described technique, have a maximum thrombin concentration of at least 50 nM. As can be clearly read off from Table 1, all the crystalline, water-insoluble polyphosphates according to the invention are notable for a hemostatic action, whereas amorphous, water-soluble polyphosphates and also crystalline mono-, tri- and metaphosphates are not hemostatic.

Series [2] in a line: Determination of solubility in water. Particulars: distilled water, 20-22° C., shaken 20 min. The series is classed as physicochemical.
Description: The polyphosphates to be investigated were each weighed out in a 250 ml Erlenmeyer flask (5 g±0.01 g) and admixed with distilled water (50 ml, 20-22° C.). The mixture thus obtained was shaken at 200 revolutions per minute (rpm, rotary movement) for 20 min. Thereafter, the mixture was transferred to a centrifuge tube and centrifuged at 5000 rpm for 20 min. […] The solubility in g per 100 g of water was then obtained from the formula TR×10, where TR represents the determined dry residue in grams.

As for `O=P([O-])([O-])OP(=O)([O-])OP(=O)([O-])[O-].[Na+].[Na+].[Na+].[Na+].[Na+]` [Example V1, sodium triphosphate], the Hemostatic entry in series [1] is “No (hemostatic refers to phosphates where the thrombograms, as determined by the above-described technique, have a maximum thrombin concentration of at least 50 nM)”.
`O=P1([O-])OP(=O)([O-])OP(=O)([O-])O1.[Na+].[Na+].[Na+]` [Example V7, sodium trimetaphosphate]: the Water-soluble result in series [2] is “Yes (water-soluble refers to phosphates having a water solubility of at least 1 g per 100 g of water)”. Also, in series [1], the Hemostatic result is listed as “No (hemostatic refers to phosphates where the thrombograms, as determined by the above-described technique, have a maximum thrombin concentration of at least 50 nM)”.
Turning to `O.O.O=P([O-])([O-])O.[Ca+2]` [Example V8, dicalcium phosphate dihydrate], the Hemostatic entry in series [1] is on record as “No (hemostatic refers to phosphates where the thrombograms, as determined by the above-described technique, have a maximum thrombin concentration of at least 50 nM)”.
